These results are taken from article PMC9229263, “Pyrazolo[4,3-e]tetrazolo[1,5-b][1,2,4]triazine Sulfonamides as Novel Potential Anticancer Agents: Cytotoxic and Genotoxic Activities In Vitro” (Molecules, 2022).

In data set [1] the test system is HCT 116. Particulars: cited from earlier work.
The subject of data set [2] is PC-3. Particulars: cited from earlier work.
Data set [3] relates to HeLa. Set-up: method as in doi:10.26650/IstanbulJPharm.2020.0039, PMID 34200051. The following applies: cited from earlier work.
The test system of data set [4] is HT-29 and DLD-1. The following applies: HT-29 and DLD-1, range; cited from earlier work.
Data set [5] deals with BxPC-3. Details: method as in PMID 20021699, PMID 24172061. Particulars: cited from earlier work.
Data set [6] deals with HeLa. The data set is described as follows: MTT assay, HeLa. The class given is cell-based. Particulars: Homo sapiens, 72 h, 95% confidence intervals in parentheses. An excerpt:
(§1) In order to characterize the effect of tested compounds on cell viability, the MTT test was used. MTT microplate assay enables evaluation of cell viability via measuring cell metabolic activity represented as an ability to incorporate and reduce yellow tetrazolium salt to the violet-blue formazan compounds via the activity of mitochondrial succinate dehydrogenase enzyme. The number of metabolically active cells positively correlates with the amount of reduced tetrazolium salt. The absorbance of formazan solution obtained after solubilizing formazan crystals in an organic solvent, e.g., DMSO, can be measured spectrophotometrically at 570 nm.
(§2) The suspension of 8–10 × 10^3 (adherent cells) and 8 × 10^4 (PBMCs) cells in 200 µL and 100 µL medium, respectively, was transferred to each well of 96-well microplate. Plates were incubated for 24 h in controlled conditions (5% CO2; 37 °C) to ensure cell growth. Subsequently, the medium was replaced, and the cells were exposed to tested compounds in a wide range of concentrations (0.1–6 µM). Before investigated compounds were diluted in a culture medium, they had been diluted in DMSO in the final concentration of <0.5% v/v, which were not toxic to the cells. The experimental design included blanks (wells without cells) as well as non-treated control cells. Following the 72 h incubation period, a volume of 20 µL of fresh tetrazolium salt solution (5 mg/mL in PBS) was added per well. In the case of adherent cancer cells, after 3 h of incubation (conditions as previously), the solutions were replaced by 100 µL of DMSO to dissolve formazan complexes. In contrast, the solutions in plates containing PBMCs were not removed and a 100 µL mixture of 50% DMF and 20% SDS was added to each well for the next 24 h. Absorbance was measured via spectrophotometer (microplate reader Power Wave XS BioTek Instruments, Inc., Winooski, VT, USA) at 570 nm. […]

The test system of data set [7] is HCT 116. In words: MTT assay, HCT 116. The class given is cell-based. Particulars: Homo sapiens; HCT 116, MTT, 72 h; 95% confidence intervals in parentheses.
Text: as §1, §2
On the technique in general: Tetrazolium dyes change colour on reduction, which living cells bring about.

The subject of data set [8] is PC-3. In words: MTT assay, PC-3. The class given is cell-based. The following applies: Homo sapiens; PC-3, MTT, 72 h; 95% confidence intervals in parentheses.
Text: as §1, §2

Data set [9] concerns BxPC-3. The data set is described as follows: MTT assay, BxPC-3. The class given is cell-based. Particulars: Homo sapiens; BxPC-3, MTT, 72 h; 95% confidence intervals in parentheses.
Text: as §1, §2

Data set [10] concerns Hs27. The data set is described as follows: MTT assay, Hs27 fibroblasts (normal). The class given is cell-based. The following applies: Homo sapiens, 72 h, 95% confidence intervals in parentheses.
Text: as §1, §2

The subject of data set [11] is PBMCs. In words: MTT assay, PBMCs (normal). The class given is cell-based. Particulars: Homo sapiens, PBMC, PBMCs normal cells, 72 h, 95% confidence intervals in parentheses.
Text: Human PBMCs were isolated from the leucocyte buffy coat obtained from the blood of healthy and nonsmoking volunteers (aged 18–65). Leukocyte buffy coats were collected from Blood Bank in Lodz, Poland. The use of the leukocyte buffy coat in the investigation of the effect of novel tricyclic pyrazolo[4,3-e][1,2,4]triazine derivatives on human PBMCs was approved by the Bioethics Committee for Scientific Investigation, University of Lodz (agreement no. 8/KBBN-UŁ/I//2019). Isolation of PBMCs was performed by density gradient of Lymphosep (25 min, 1400 rpm, RT). PBMCs were cultured in RPMI-1640 medium, supplemented with 1% (v/v) penicillin–streptomycin solution, 1.5% PHA and 10% (v/v) FBS.
as §1
(§3) The suspension of 8–10 × 10^3 (adherent cells) and 8 × 10^4 (PBMCs) cells in 200 µL and 100 µL medium, respectively, was transferred to each well of 96-well microplate. Plates were incubated for 24 h in controlled conditions (5% CO2; 37 °C) to ensure cell growth. Subsequently, the medium was replaced, and the cells were exposed to tested compounds in a wide range of concentrations (0.1–6 µM). Before investigated compounds were diluted in a culture medium, they had been diluted in DMSO in the final concentration of <0.5% v/v, which were not toxic to the cells. […] Absorbance was measured via spectrophotometer (microplate reader Power Wave XS BioTek Instruments, Inc., Winooski, VT, USA) at 570 nm. […]

Data set [12] has as its system HCT 116. The data set is described as follows: Comet assay, alkaline version (pH > 13), HCT 116. The class given is cell-based, human. The following applies: HCT 116, 24 h; for Alkaline Version, median percentage of DNA in comet tail: compound at 2 × IC50, interquartile range in parentheses. The protocol: (§4) The alkaline version (pH > 13), as well as the neutral version (pH 9.0) of the comet assay, was performed on cancer cell lines according to the procedures described by Singh et al. with modifications. 12-well plates were seeded at a density of 1.2–1.5 × 10^5 cells per well. […] In addition, negative and positive controls (cells treated only with DMSO at <0.5% and with bleomycin at 20 µM, respectively) were included.
(§5) Following a 24 h incubation (5% CO2; 37 °C), the cells were trypsinized and transferred to Eppendorf tubes and centrifuged (10 min, 1400 rpm, 4 °C). The obtained pellet was resuspended in 100 µL of fresh PBS, mixed with 0.75% LMP agarose dissolved in PBS, and embedded onto microscope slides, previously precoated with 0.5% NMP agarose. The Trypan Blue dye exclusion test was used to determine the number of viable cells present in a cell suspension. […] The slides after agarose solidification were placed in a fresh, cold lysis buffer (pH 10, 1% Triton X-100, 2.5 M NaCl, 100 mM EDTA, 10 mM Tris) for 1 h (4 °C, in dark), which subsequently was replaced by electrophoretic solution (1 mM EDTA, 300 mM NaOH, pH > 13) for another 40 min. Afterward, electrophoresis was performed (25 min, 0.73 V/cm, 300 mA, 4 °C, in dark). Subsequently, the slides were neutralized with 0.4 M Tris, pH 7.5 (20 min, 4 °C, in dark) and washed 3× in distilled water. Eventually, slides were drained, stained with DAPI (1 μg/mL) for at least 1 h (4 °C), and analyzed with fluorescence microscope (Olympus, Tokyo, Japan).
(§6) A total number of 50 randomly selected images were analyzed in the commercially available software CaspLab. Two parallel experiments with aliquots of the same sample of cells were performed for a total of 100 cells. From the available parameters, the percentage of DNA in comet tail was selected as the most appropriate as being negatively associated with the level of DNA cross-links, as well as positively correlated with alkali-labile sites and the amount of DNA single-strand breaks (SSBs) and double-strand breaks (DSBs) (alkaline version of the comet assay). […]

Data set [13] concerns PC-3. The data set is described as follows: Comet assay, alkaline version (pH > 13), PC-3. The class given is cell-based, human. Particulars: PC-3, 24 h, range over 0.5, 1 and 2 × IC50. The protocol:
as §4, §5, §6

In data set [14] the test system is HCT 116. In words: Immunocytochemical detection of γ-H2AX. The class given is cell-based, human. The following applies: HCT 116, 24 h, highest concentration used (2 × IC50). The protocol: Immunocytochemical detection of the phosphorylated form of the histone protein component H2AX (γ-H2AX) is a well-known approach to estimate DNA DSB levels in both in vitro [47, 53, 66] and in vivo [67, 68] studies. HCT 116 cells were grown on coverslips in 12-well plates at a density of 1.2 × 10^5 per well for 24 h (5% CO2; 37 °C). Subsequently, the cells were exposed to investigated compounds in two different concentrations (IC50 and 2 × IC50 values with respect to MTT results), by replacing the medium with an appropriate compound concentration. Negative control (cells treated only with DMSO at <0.5%) was also included.
The cells were fixed with 4% paraformaldehyde (10 min), washed twice with PBS, and permeabilized with 0.5% (v/v) Triton X-100/PBS solution (10 min). Afterward, the cells were incubated with a blocking solution containing 1.5% goat serum, and 0.1% Triton in PBS for 10 min and incubated with the primary antibody, anti-gamma-H2AX (phospho-Ser139) (Abcam, Cambridge, UK; 1:100) for 1 h. […]
The slides were examined using a fluorescence microscope (Olympus) at 40× magnification. […] A total number of 150 randomly selected cells from digital images per sample were measured. The data were exported and analyzed in GraphPad Prism 8.0 software system (GraphPad Prism Software Inc., San Diego, CA, USA).

The subject of data set [15] is HeLa, HCT 116, PC-3, BxPC-3, Hs27, PBMCs. In words: MTT assay, summary over all tested cells. The following applies: Homo sapiens; HCT 116, HeLa, PC-3 and BxPC-3, MTT; read-out: IC50 range in cancer cell lines. The class given is cell-based.
Text: as §1, §3

In data set [16] the test system is HT-29 and DLD-1 cancer cells. Details: method as in PMID 26089833. The following applies: mice challenged with HT-29 and DLD-1 cancer cells, two weeks of treatment; cited from earlier work.
Data set [17] deals with tumor development. Set-up: method as in PMID 31371419. Particulars: zebrafish embryo xenograft model; cited from earlier work.

Like-named read-outs stand apart in the source and are kept apart here.

A word on the IC50: it is the concentration needed to halve the response being measured. On to `N.N.[Cl][Pt][Cl]` [cisplatin], for which the IC50 in [1] was 9 µM; in [2], 9 µM; in data set [3], 12.3 µM.

As to `Cc1nn(-c2ccc(S(=O)(=O)N3CCN(C)CC3)cc2)c2nn3nnnc3nc12` [MM137, reference compound], in [4], the IC50 is 160 to 1540 nM.

Turning to `O=c1[nH]cc(F)c(=O)[nH]1` [5-fluorouracil], the values for the IC50 in data set [5] and in data set [1] were 96.1 µM and 3.2 µM, respectively.

With `O=C1[O][Pt]2([NH][C@@H]3CCCC[C@H]3[NH]2)[O]C1=O` [oxaliplatin], the IC50 was 72 µM in data set [1] and 100 µM in data set [2].

The term melting point denotes the temperature of the solid-liquid transition. `Cc1nn(-c2ccc(S(=O)(=O)N[C@@H](C)CO)cc2)c2nn3nnnc3nc12` [MM130] yielded a melting point of 197 to 202 °C. Also, the IC50 in data set [6] was determined as 590 nM. The IC50 in [7] stood at 440 nM. The concentration for half-maximal inhibition (IC50) in [8] is 220 nM. Also, in data set [9], the IC50 stood at 170 nM. For the same molecule, in [10], the half-inhibitory concentration (IC50) was determined as 810 nM. Moreover, the concentration for half-maximal inhibition (IC50) in [11] was determined as 770 nM. Moreover, in data set [12], the “Alkaline Version, median percentage of DNA in comet tail” value is recorded as 25.6%. In data set [13], the “% of DNA in comet tail, alkaline comet assay” value (“% of DNA in comet tail” below) was 7.4–21.8%. Further, the “median of the number of γ-H2AX foci per nucleus” value in data set [14] is listed as 12 foci per nucleus.

On to `Cc1nn(-c2ccc(S(=O)(=O)NC(CO)CC(C)C)cc2)c2nn3nnnc3nc12` (centres unmarked) [MM124, reference compound], for which the 50% inhibitory concentration (IC50) in data set [4] is 160 to 1540 nM.

With `Cc1nn(-c2ccc(S(=O)(=O)N[C@H](C)CO)cc2)c2nn3nnnc3nc12` [MM131], the concentration for half-maximal inhibition (IC50) in [6] is 410 nM; in data set [7] it was 390 nM; in data set [8], 170 nM; in [9] it was 130 nM; in data set [10], 620 nM; in data set [11] it was 620 nM. For the same molecule, the concentration for half-maximal inhibition (IC50) in data set [15] is 130 to 900 nM; in data set [4], 3100 to 3900 nM. Further, the “Alkaline Version, median percentage of DNA in comet tail” value in [12] is reported as 38.8%. Further, the “% of DNA in comet tail” value is given as 8–38.8% in data set [12] (range over 0.5, 1 and 2 × IC50); 19.5–40.3% in [13]. For the same molecule, in [14], the “median of the number of γ-H2AX foci per nucleus” value was 15 foci per nucleus.

For `CCc1c2c(nc3ccc(OC(=O)N4CCC(N5CCCCC5)CC4)cc13)-c1cc3c(c(=O)n1C2)COC(=O)[C@]3(O)CC` [irinotecan], the values for the IC50 in data set [1] and in data set [2] were 2.6 µM and 2.1 µM, respectively.

In the case of `COC(=O)C1CC(O)CN1S(=O)(=O)c1ccc(-n2nc(C)c3nc4nnnn4nc32)cc1` (centres unmarked) [MM129], the IC50 turned out to be 900 nM in [6]; 600 nM in data set [7]; 360 nM in data set [8]; 260 nM in data set [9]; 1150 nM in data set [10]; 1110 nM in data set [11]. Also, the values for the IC50 in [15] and in [4] were 130 to 900 nM and 3100 to 3900 nM, respectively. In addition, in [13], the “% of DNA in comet tail” value was 7.4–21.8%. Besides, the “tumor mass and volume” value in data set [16] was “significant reduction in tumor mass and volume”. The tumor development result in data set [17] is on record as “inhibition of tumor development”.
